Measurements taken from US9949917B2, “Cosmetic composition comprising a combination of a sugar fatty acid ester with a plant extract of Waltheria indica or Pisum sativum for skin whitening” (Cognis IP Management GmbH, priority 2006, dated 2018).

Legend:
[1] = biological target: T1, Tyrosinase in B16 melanocytes (Mus musculus, UniProt P11344); assay: Tyrosinase activity on melanocytes (DL-DOPA, optical density at 475 nm); format: cell-based
T1 construct: endogenous in cells; host or cells: B16 melanocytes (cell line)
T1 sequence (P11344 19-533): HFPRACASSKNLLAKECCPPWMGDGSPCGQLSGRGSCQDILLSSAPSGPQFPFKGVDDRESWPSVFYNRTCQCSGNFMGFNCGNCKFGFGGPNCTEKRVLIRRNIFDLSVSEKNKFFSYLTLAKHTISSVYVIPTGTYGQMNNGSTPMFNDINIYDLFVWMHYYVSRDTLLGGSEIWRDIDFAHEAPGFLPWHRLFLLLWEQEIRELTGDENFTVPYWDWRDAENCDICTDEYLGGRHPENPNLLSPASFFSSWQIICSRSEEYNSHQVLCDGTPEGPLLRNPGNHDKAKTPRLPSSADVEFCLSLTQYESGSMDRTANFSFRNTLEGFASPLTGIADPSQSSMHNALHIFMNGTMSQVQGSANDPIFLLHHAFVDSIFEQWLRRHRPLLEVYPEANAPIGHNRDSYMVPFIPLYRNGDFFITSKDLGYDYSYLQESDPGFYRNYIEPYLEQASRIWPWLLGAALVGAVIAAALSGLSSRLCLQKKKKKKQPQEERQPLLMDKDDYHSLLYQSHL
Source text: Melanocytes (B16 cell line) were inoculated in standard medium of cell culture with foetal calf serum (FCS). […] Combinations of ingredients have been tested on the same cultures, in parallel with ingredients alone. […] The optical density at 475 nm is expressed as a % against control and presented as a mean+/−SEM (standard error of mean) of triplicates.

[2] = tested on: Melanocytes (B16 cell line); assay: Melanogenesis inhibition assay: level of melanin (optical density at 475 nm); format: cell-based
Experimental: Melanocytes (B16 cell line) were inoculated in standard medium of cell culture with foetal calf serum (FCS). After an incubation for 3 days at 37° C. and CO2=5%, growth medium was exchanged for standard medium with a range of concentrations for each ingredient to be tested and a control without ingredient. After an incubation of 3 days, the level of melanin is measured by recording the optical density at 475 nm. After washing the cells by a balanced salt, and homogenisation in a solution of 0.1 M NaOH, the number of viable cells is determined by evaluation of the level of cellular proteins (Bradford's method).
Combinations of ingredients have been tested on the same cell cultures, in parallel with the ingredients alone. The results are expressed in % against control (cell culture medium without ingredient) as a mean+/−SEM (Standard Error of Mean) on 2 or 3 assays, each in triplicate.

[3] = sucrose laurate 0.0003% (w/v) alone, 3 assays

Substance: Sucrose laurate [Sucrose laurate of example 5]
- effect on tyrosinase activity in melanocytes (in words) ([1]; Tables 7 and 8): decreases the tyrosinase activity
- Tyrosinase activity in %/control ([1]; sucrose laurate 0.005% (w/v) alone): 75 +/− 6 %/control
- Tyrosinase activity in %/control ([1]; sucrose laurate 0.01% (w/v) alone): 64 +/− 7 %/control
- Rate of melanin in %/control [2, 3]: 56 +/− 18 %/control
- Ratio of rate of cellular proteins on rate of melanin [2, 3]: 1.8
- Rate of melanin in %/control ([2]; sucrose laurate 0.0003% (w/v) alone, 3 assays, listed as sucrose laurate): 56+/−18 %/control
- Rate of melanin in %/control ([2]; sucrose laurate 0.001% (w/v) alone, 2 assays (Table 5)): 56 +/− 7 %/control
- Ratio of rate of cellular proteins on rate of melanin ([2]; sucrose laurate 0.001% (w/v) alone, 2 assays (Table 6)): 1.6
- Rate of melanin in %/control ([2]; sucrose laurate 0.001% (w/v) alone, 3 assays (Table 2)): 54 +/− 16 %/control
- Rate of melanin in %/control ([2]; sucrose laurate 0.001% (w/v) alone, 3 assays (Table 2), listed as sucrose laurate): 54+/−16 %/control
- Ratio of rate of cellular proteins on rate of melanin ([2]; sucrose laurate 0.001% (w/v) alone, 3 assays (Table 3)): 1.8
